Columns and labels:
[1] = test system: Human oral cancer cells KB-VIN; assay: Anti-cancer activity, KB-VIN cells; format: cell-based; conditions: KB-VIn (anti-drug-resistant nasopharyngeal carcinoma)
[2] = test system: KB (nasopharyngeal carcinoma)

Substance: [1,4-(4R)-diphenyl-2-oxazolinyl benzene] platinum nitrate complex [Platinum complex (I)]
- inhibitory activity ED50 [1]: < 10.0 µg/mL
- inhibitory activity ED50 [2]: < 10.0 µg/mL
